Test results published in patent publication US10966951B2, “Compositions and methods for lowering triglycerides in a subject having reduced kidney function” (Amarin Pharmaceuticals Ireland Limited, priority 2017, dated 2021).

Columns and labels:
[1] = Essential fatty acid parameters in RBC, 6-week AAMI study (Example 2); format: in vivo, human
Protocol: A single-center, 6-week, double-blind, randomized, parallel-group, placebo-controlled, dose-ranging pilot study was performed to evaluate the efficacy, tolerability, and safety of >96% E-EPA in subjects with subjective and objective memory impairment according to generally accepted criteria for Age-Associated Memory Impairment (“AAMI”). The primary objective of the study was to determine the effect of >96% E-EPA 1 g, 2 g, and 4 g daily, compared to placebo, on cognitive performance in subjects with AAMI.
Ninety-four subjects were randomized into one of six groups: 1 g E-EPA daily (n=23), 2 g E-EPA daily (n=24), 4 g E-EPA daily (n=24), 1 g placebo daily (n=7), 2 g placebo daily (n=8), and 4 g placebo daily (n=8). E-EPA was provided as 500 mg soft gel capsules containing >96% E-EPA and 0.2% dl-α-tocopherol as an antioxidant. Placebo capsules contained 467 mg of liquid paraffin and 0.2% dl-α-tocopherol. Ninety-one subjects completed the study. Two subjects in the 2 g E-EPA group and one subject in the 2 g placebo group discontinued the study.
Blood samples (10 mL) were collected at Visit 1 (screening) and at Visits 4, 5, and 6. Analysis was performed by MSR Lipid Analysis, Scottish Crop Research Institute, Dundee, UK. The screening sample acted as baseline for the EFA measurements. Lipid was extracted from plasma, serum, and RBC suspensions and converted into fatty acid methyl esters which were analyzed by gas chromatography to give fatty acid profiles as micrograms fatty acid per gram of sample ([…]) and normalized area percent.
RBC and plasma EFA data were collected at baseline, Day 14, 28, and 42 and summarized by visit for each treatment group. Change from baseline and percent change from baseline were also summarized. ANCOVA comparison of E-EPA dose groups and E-EPA versus placebo was performed.

[2] = test system: patients with reduced kidney function (eGFR<90 mL/min/1.73 m^2) and hsCRP≥2.0 mg/L; experiment: Post-hoc ANCHOR analysis, reduced kidney function and hsCRP≥2.0 mg/L (Example 6); format: in vivo, human; conditions: 4 g/day
Protocol: CVD-related (e.g., atherogenic) parameters were analyzed in a post-hoc study of 152 patients from the multi-center, placebo-controlled, randomized double-blind, 12-week study described in Example 1. These 152 patients have reduced kidney function (e.g., eGFR<90 mL/min/1.73 m^2 for ≥3 months) and hsCRP≥2.0 mg/L.
72 patients were randomized to E-EPA and 80 patients were randomized to placebo. In total, atherogenic parameters were analyzed in all 152 patients, 54% of which were male and 99% of which were white. The mean age of the 152 patients was 64 years old.
The primary objective of this post-hoc study, was to determine if and how 4 g of daily of >96% E-EPA, compared to placebo, affects patients with reduced kidney function, elevated hsCRP (e.g, hsCRP≥2.0 mg/L), and high triglyceride levels. The secondary objective was to determine if and how 4 g daily of >96% E-EPA, compared to placebo, affected CVD-related parameters in patients with a high risk for CVD and fasting TG levels 200 mg/dL and <500 mg/dL, despite treatment to LDL-C goal on statin therapy. These CVD-parameters include lipid levels, lipoprotein levels, and inflammatory markers, such as TC, LDL-C, HDL-C, vLDL-C, vLDL-TG, RLP-C, non-HDL-C, Apo B, Apo C-III, Lp-PLA, hsCRP, and ox-LDL, and in plasma and RBC EPA concentration. CVD-parameters were analyzed for median difference in percent change from baseline to week 12 in subjects receiving 4 g/day of E-EPA and those receiving the placebo.
The median difference in lipid/lipoprotein, apolipoprotein, and inflammatory parameters were determined from baseline to week 12 for 4/g day of E-EPA compared to placebo.

- albumin after 12 weeks ([2]; after 12 weeks): 4.4 g/dL
- serum creatinine after 12 weeks ([2]; after 12 weeks): 0.9 mg/dL
- albumin before treatment ([2]; before the 12 weeks): 4.5 g/dL
- eGFR before treatment ([2]; before the 12 weeks): 72.4 mL/min/1.73 m^2
- serum creatinine before treatment ([2]; before the 12 weeks): 0.9 mg/dL
Compound: CC/C=C\C/C=C\C/C=C\C/C=C\C/C=C\CCCC(=O)OCC [E-EPA, ethyl eicosapentaenoate]
- AA Mean change from Baseline, Mean (SD) ([1]; 1 g daily, Day 14): −8.1 (21.95) μg/g
- DGLA Mean change from Baseline, Mean (SD) ([1]; 1 g daily, Day 14): −2.7 (3.82) μg/g
- DHA Mean change from Baseline, Mean (SD) ([1]; 1 g daily, Day 14): −4.6 (9.76) μg/g
- EPA/AA Mean change from Baseline, Mean (SD) ([1]; 1 g daily, Day 14): 0.1 (0.04)
- AA Mean change from Baseline, Mean (SD) ([1]; 1 g daily, Day 28): −17.0 (20.69) μg/g
- DGLA Mean change from Baseline, Mean (SD) ([1]; 1 g daily, Day 28): −3.8 (3.31) μg/g
- DHA Mean change from Baseline, Mean (SD) ([1]; 1 g daily, Day 28): −6.4 (11.57) μg/g
- EPA/AA Mean change from Baseline, Mean (SD) ([1]; 1 g daily, Day 28): 0.1 (0.05)
- DGLA Mean change from Baseline, Mean (SD) ([1]; 1 g daily, Day 42): −3.5 (4.51) μg/g
- DHA Mean change from Baseline, Mean (SD) ([1]; 1 g daily, Day 42): −7.0 (12.20) μg/g
- EPA/AA Mean change from Baseline, Mean (SD) ([1]; 1 g daily, Day 42): 0.1 (0.06)
- DGLA Baseline Mean (SD) ([1]; 1 g daily): 23.0 (5.19) μg/g
- EPA/AA Baseline Mean (SD) ([1]; 1 g daily): 0.1 (0.07)
- AA LS Mean, 1 g versus 4 g ([1]; 1 g versus 4 g): 8.4 µg/g
- DGLA LS Mean, 1 g versus 4 g ([1]; 1 g versus 4 g): 1.5 µg/g
- DHA LS Mean, 1 g versus 4 g ([1]; 1 g versus 4 g): 1.0 µg/g
- EPA/AA LS Mean, 1 g versus 4 g ([1]; 1 g versus 4 g): −0.18
- AA Mean change from Baseline, Mean (SD) ([1]; 2 g daily, Day 14): −3.1 (25.84) μg/g
- DGLA Mean change from Baseline, Mean (SD) ([1]; 2 g daily, Day 14): −2.6 (3.54) μg/g
- DHA Mean change from Baseline, Mean (SD) ([1]; 2 g daily, Day 14): −2.0 (9.46) μg/g
- EPA/AA Mean change from Baseline, Mean (SD) ([1]; 2 g daily, Day 14): 0.2 (0.04)
- DGLA Mean change from Baseline, Mean (SD) ([1]; 2 g daily, Day 28): −4.5 (3.58) μg/g
- DHA Mean change from Baseline, Mean (SD) ([1]; 2 g daily, Day 28): −6.2 (9.34) μg/g
- EPA/AA Mean change from Baseline, Mean (SD) ([1]; 2 g daily, Day 28): 0.02 (0.06)
- DGLA Mean change from Baseline, Mean (SD) ([1]; 2 g daily, Day 42): −5.3 (3.65) μg/g
- DHA Mean change from Baseline, Mean (SD) ([1]; 2 g daily, Day 42): −6.3 (9.42) μg/g
- EPA/AA Mean change from Baseline, Mean (SD) ([1]; 2 g daily, Day 42): 0.3 (0.06)
- DGLA Baseline Mean (SD) ([1]; 2 g daily): 23.0 (5.76) μg/g
- EPA/AA Baseline Mean (SD) ([1]; 2 g daily): 0.1 (0.06)
- AA LS Mean, 2 g versus 4 g ([1]; 2 g versus 4 g): 9.8 µg/g
- DGLA LS Mean, 2 g versus 4 g ([1]; 2 g versus 4 g): 1.5 µg/g
- DHA LS Mean, 2 g versus 4 g ([1]; 2 g versus 4 g): 1.0 µg/g
- EPA/AA LS Mean, 2 g versus 4 g ([1]; 2 g versus 4 g): −0.11
- DGLA Mean change from Baseline, Mean (SD) ([1]; 4 g daily, Day 14): −5.3 (4.10) μg/g
- DHA Mean change from Baseline, Mean (SD) ([1]; 4 g daily, Day 14): −6.9 (9.13) μg/g
- EPA/AA Mean change from Baseline, Mean (SD) ([1]; 4 g daily, Day 14): 0.3 (0.07)
- DGLA Mean change from Baseline, Mean (SD) ([1]; 4 g daily, Day 28): −7.1 (4.63) μg/g
- DHA Mean change from Baseline, Mean (SD) ([1]; 4 g daily, Day 28): −8.7 (11.63) μg/g
- EPA/AA Mean change from Baseline, Mean (SD) ([1]; 4 g daily, Day 28): 0.4 (0.11)
- DGLA Mean change from Baseline, Mean (SD) ([1]; 4 g daily, Day 42): −8.0 (4.98) μg/g
- EPA/AA Mean change from Baseline, Mean (SD) ([1]; 4 g daily, Day 42): 0.4 (0.14)
- DGLA Baseline Mean (SD) ([1]; 4 g daily): 24.0 (5.77) μg/g
- EPA/AA Baseline Mean (SD) ([1]; 4 g daily): 0.1 (0.04)
